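Cultured in 96-well plates, cells were exposed to test compound for 48 hours across five concentrations. At the GI50, growth is halved.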 Active and inactive are the calls of the source. Rule as the data show it: active = GI50 up to about 1.1 µM and inactive = higher.
What was measured:
Assay in all cases: NCI-60 cell line screen, 48 h
A549 = tested on: A549
CCRF-CEM = tested on: CCRF-CEM
HCT-116 = tested on: HCT-116
HOP-62 = tested on: HOP-62
IGROV-1 = tested on: IGROV-1
KM12 = tested on: KM12
Malme-3M = tested on: Malme-3M
NCI-H460 = tested on: NCI-H460
NCI-H522 = tested on: NCI-H522
OVCAR-3 = tested on: OVCAR-3
OVCAR-5 = tested on: OVCAR-5
RPMI-8226 = tested on: RPMI-8226
SK-MEL-2 = tested on: SK-MEL-2
TK-10 = tested on: TK-10
SNB-75 = tested on: SNB-75

Measured: GI50

O=C(O)CC[C@H](NC(=O)c1ccc(-n2nc3ccc(=O)cc-3[nH]c2=O)cc1)C(=O)O
inactive: A549 > 100 µM | CCRF-CEM > 100 µM | HCT-116 > 100 µM | HOP-62 > 100 µM | IGROV-1 > 100 µM | KM12 > 100 µM | Malme-3M > 100 µM | NCI-H460 > 100 µM | NCI-H522 > 100 µM | OVCAR-3 > 100 µM | OVCAR-5 > 100 µM | RPMI-8226 > 100 µM | SK-MEL-2 > 100 µM | TK-10 > 100 µM

COC(=O)N/N=C(\C)CC(=O)Nc1ccc(Cl)cc1
inactive: A549 > 100 µM | CCRF-CEM > 100 µM | HCT-116 > 100 µM | HOP-62 > 100 µM | IGROV-1 > 100 µM | KM12 > 100 µM | Malme-3M > 100 µM | NCI-H460 > 100 µM | NCI-H522 58.5 µM | OVCAR-3 > 100 µM | OVCAR-5 > 100 µM | RPMI-8226 > 100 µM | SK-MEL-2 > 100 µM | SNB-75 98.6 µM | TK-10 > 100 µM

COc1cccc(OC)c1/C=N\N1C(=O)c2ccccc2C1=O
inactive: A549 > 100 µM | CCRF-CEM 33.6 µM | HCT-116 33.5 µM | HOP-62 > 100 µM | IGROV-1 84.3 µM | KM12 36.6 µM | Malme-3M 60 µM | NCI-H460 43.2 µM | OVCAR-3 19.9 µM | OVCAR-5 > 100 µM | RPMI-8226 28.2 µM | SK-MEL-2 60.8 µM | SNB-75 38.5 µM | TK-10 57.7 µM

Cn1nc2ccccc2cc1=O
inactive: A549 > 100 µM | CCRF-CEM > 100 µM | HCT-116 > 100 µM | HOP-62 > 100 µM | IGROV-1 > 100 µM | KM12 > 100 µM | Malme-3M > 100 µM | NCI-H460 > 100 µM | OVCAR-3 > 100 µM | OVCAR-5 > 100 µM | RPMI-8226 > 100 µM | SK-MEL-2 > 100 µM | SNB-75 59.2 µM | TK-10 > 100 µM

OC1(C23CC4CC(CC(C4)C2)C3)CSCC1(O)C12CC3CC(CC(C3)C1)C2 (stereo not drawn)
inactive: A549 > 100 µM | CCRF-CEM > 10 µM | HCT-116 > 100 µM | HOP-62 > 100 µM | IGROV-1 > 100 µM | KM12 > 100 µM | Malme-3M > 100 µM | NCI-H522 > 100 µM | OVCAR-3 > 100 µM | RPMI-8226 > 100 µM | SK-MEL-2 > 100 µM | SNB-75 > 100 µM | TK-10 > 100 µM

O=C1NCCS(=O)(=O)N[C@@H](CC2=CC=CCC2)C(=O)N2CCCC12 (stereo partly drawn)
inactive: A549 > 100 µM | CCRF-CEM > 100 µM | HCT-116 > 100 µM | HOP-62 > 100 µM | IGROV-1 > 100 µM | KM12 > 100 µM | Malme-3M > 100 µM | NCI-H460 > 100 µM | NCI-H522 > 100 µM | OVCAR-3 > 100 µM | OVCAR-5 > 100 µM | RPMI-8226 > 100 µM | SK-MEL-2 > 100 µM | SNB-75 > 100 µM | TK-10 > 100 µM

CCn1c2ccccc2c(=O)c2c(OC)ccc(OC)c21
inactive: A549 55.6 µM | CCRF-CEM 48 µM | HCT-116 51.1 µM | HOP-62 54.3 µM | IGROV-1 46.9 µM | KM12 79.6 µM | Malme-3M 68.5 µM | NCI-H460 47.6 µM | NCI-H522 20.6 µM | OVCAR-3 34 µM | OVCAR-5 > 61.7 µM | RPMI-8226 35.5 µM | SK-MEL-2 75.5 µM
